The text below walks through data of patent publication US8058243B2, “Method for treating a brain cancer with ifenprodil” (HSC Research and Development Limited Partnership, priority 2006, dated 2011).

The assay deals with murine neural precursor cells (neurosphere cultures). As to the kind of experiment: HTS of LOPAC library against secondary neurosphere cultures, MTT proliferation assay at 3 μM, day 7 (z score, P value). The assay is classed as cell-based, mouse.
The mark [1] stands for this setting: LOPAC primary screen, neurosphere MTT proliferation, 3 μM, day 7.
Setting [2] is: yes/no: significantly inhibited neurosphere proliferation in primary screen.
The mark [3] stands for this setting: yes = significantly inhibited neurosphere proliferation (P<0.01) in the primary screen.
Where [4] appears, read: primary LOPAC screen, 3 μM, MTT, neurosphere proliferation.
[5] abbreviates: yes/no: significantly inhibited neurosphere proliferation in the primary screen.
The mark [6] stands for this setting: LOPAC library screen at 3 μM, MTT, secondary neurosphere cultures, screened in singlets.
The mark [7] stands for this setting: LOPAC screen, neurosphere MTT proliferation, 3 μM, day 7.
The mark [8] stands for this setting: yes/no: significantly inhibited neurosphere proliferation (P<0.01) in primary screen.
The mark [9] stands for this setting: LOPAC library screen at 3 μM, secondary neurosphere cultures, MTT.
The mark [10] stands for this setting: LOPAC library screen, 3 μM, MTT, secondary neurosphere cultures, day 7.
[11] abbreviates: LOPAC library screen, 3 μM, MTT, neurosphere cultures.
Where [12] appears, read: yes/no: significantly inhibited neurosphere proliferation (P<0.01) in the primary screen.

Where a name gives a salt, the structure may show the parent alone. Read-outs that look alike come from different tables or passages of the source.

Take `Cl.NCCc1c[nH]c2ccccc12` [Tryptamine hydrochloride]: the “Z Score” value came out at 1.245. The Z score under setting [1] was 1.245. The Activity result under setting [2] is “no”.
Take `OC1(c2ccc(Cl)cc2)CCN(Cc2c[nH]c3ccccc23)CC1` [L-741,626]: the “Z Score” value was −1.009. The compound also had a Z score under setting [1] of −1.009. Further, the Activity entry under setting [3] is listed as “no”.
As to `C[C@]12CCC(=O)C=C1CC[C@@H]1[C@@H]2CC[C@]2(C)C(=O)CC[C@@H]12` [4-Androstene-3,17-dione], the “Z Score” value is recorded as −0.6917. Besides, the Z score under setting [4] is recorded as −0.692. Besides, the Activity entry under setting [5] is recorded as “no”.
Under setting [1], `Br.Oc1cc2c(c(Cl)c1O)CCNCC2c1ccccc1` (racemic) [(±)-6-Chloro-PB hydrobromide] displayed a Z score of −2.267. Moreover, the Activity entry under setting [2] is listed as “no”.
In the case of `C#C[C@]1(O)CC[C@H]2[C@@H]3CCC4=Cc5oncc5C[C@]4(C)[C@H]3CC[C@@]21C` [Danazol], the “Z Score” value under setting [6] is 2.152. Under setting [7], this compound displayed a Z score of 2.152. For the same compound, the Activity result under setting [8] is listed as “no”.
In the case of `Cc1cc(NC(=O)Nc2ccc3c(ccn3C)c2)sn1` [SB 204741], the “Z Score” value is listed as −2.299. Moreover, the Z score under setting [7] is recorded as −2.299. Further, the Activity entry under setting [8] is “no”.
`O=c1c2ccccc2[se]n1-c1ccccc1` [Ebselen]: the “Z Score” value under setting [9] was −0.2515. The compound further showed a Z score under setting [1] of −0.251.
Turning to Tyrphostin AG 808, the “Z Score” value under setting [10] was −1.315. Further, under setting [4], the Z score was −1.315. Moreover, the Activity entry under setting [5] is recorded as “no”.
In the case of `CN(C)CCC(c1ccc(Cl)cc1)c1ccccn1.O=C(O)/C=C\C(=O)O` (single isomer, unassigned; (+)) [(+)-Chlorpheniramine maleate], the Activity entry is given as “no”. In addition, the “Z Score” value under setting [10] was −1.272. Besides, under setting [1], the Z score is −1.272.
In the case of `Nc1ncnc2c1ncn2[C@@H]1O[C@H](CO)[C@@H](O)[C@H]1O` [Adenosine], under setting [9], the “Z Score” value is listed as −0.2086. The same compound registered a Z score under setting [4] of −0.209. Under setting [5], the Activity result is “no”.
On to `Cc1cccc(C(=O)NCN2CCN(c3ccccc3C#N)CC2)c1.O=C(O)/C=C\C(=O)O` [PD 168,077 maleate], for which the “Z Score” value is reported as −1.516. Moreover, the Z score under setting [1] is −1.516. Moreover, the Activity result under setting [2] was “no”.
Take `CCCCCCCCCCCCCC(=O)O[C@@H]1[C@@H](C)[C@@]2(O)[C@@H](C=C(CO)C[C@]3(O)C(=O)C(C)=C[C@@H]23)[C@@H]2C(C)(C)[C@]12OC(C)=O` [Phorbol 12-myristate 13-acetate]: the “Z Score” value was −0.265. Under setting [1], this compound yielded a Z score of −0.265. The Activity result under setting [2] is on record as “no”.
Regarding `Br.Oc1cc2c(c(Cl)c1O)CCNCC2c1ccccc1` (stereo not shown) [(B1)-6-Chloro-PB hydrobromide], the “Z Score” value is listed as −2.267.
Take `OC[C@H]1O[C@@H](n2cnc3c(Nc4ccccc4)ncnc32)[C@H](O)[C@@H]1O` [N6-Phenyladenosine]: the “Z Score” value was found to be 0.7283 and the Z score worked out at 0.728. Moreover, the Activity entry under setting [2] was “no”.
Turning to `CN(CCOc1ccc(C[C@H](Nc2ccccc2C(=O)c2ccccc2)C(=O)O)cc1)c1ccccn1` [GW1929], the “Z Score” value is on record as 0.01508. Besides, the Z score under setting [1] is 0.015. For the same compound, the Activity result under setting [8] was “no”.
For `CCCCNc1cc(C(=O)O)cc(S(N)(=O)=O)c1Oc1ccccc1` [Bumetanide], under setting [10], the “Z Score” value is listed as −2.182. This compound also had a Z score under setting [7] of −2.182. Moreover, the Activity entry under setting [8] is given as “no”.
Take `C[N+](C)(C)CC#CCN1CCCC1=O` [Oxotremorine methiodide]: the “Z Score” value is −0.7002. For the same compound, the Z score under setting [1] is −0.700. For the same compound, the Activity result under setting [2] is recorded as “no”.
As for `Cn1cc(C2=C(c3ccc(Cl)cc3Cl)C(=O)NC2=O)c2ccccc21` [SB 216763], the “Z Score” value was −2.542. Moreover, the Z score under setting [1] was −2.542. Besides, under setting [3], the Activity result is “yes”.
As for `CCCn1c(=O)c2[nH]c(-c3ccc(OCC(=O)NCCN)cc3)nc2n(CCC)c1=O` [Xanthine amine congener], the “Z Score” value under setting [11] was found to be 0.001164. Under setting [4], this compound gave a Z score of 0.001. For the same compound, the Activity entry under setting [5] is listed as “no”.
For `CN(C)S(=O)(=O)c1ccc2c(c1)/C(=C/c1cc3c([nH]1)CCCC3)C(=O)N2` [SU 6656], the “Z Score” value worked out at 0.3165. This compound also gave a Z score under setting [1] of 0.316. The Activity result under setting [2] is reported as “no”.
For `CCCCCCCCCCCCCCCCCC(=O)NCC(COP(=O)([O-])OCC[N+](C)(C)C)OCC` (racemic) [rac-2-Ethoxy-3-octadecanamido-1-propylphosphocholine], the “Z Score” value under setting [9] is −1.112. For the same compound, the Z score under setting [1] is reported as −1.112. In addition, under setting [8], the Activity entry is on record as “no”.
In the case of `O=C(c1cc(O)c(O)c([N+](=O)[O-])c1)c1ccccc1F` [Ro 41-0960], the “Z Score” value is −0.36. Under setting [1], the Z score is −0.360. Further, the Activity entry under setting [2] is given as “no”.
Turning to `O=C(O)C1CN(CCCP(=O)(O)O)CCN1` (racemic) [(±)-CPP], the Z score under setting [7] is 0.321. In addition, the Activity entry under setting [8] is given as “no”.
Take `O=C(c1ccc(OCCN2CCCCC2)cc1)c1c(-c2ccc(O)cc2)sc2cc(O)ccc12` [Raloxifene hydrochloride]: under setting [10], the “Z Score” value is given as −9.222. The compound also showed a Z score under setting [1] of −9.222. Besides, the Activity result under setting [3] is recorded as “yes”.
`O=C(CCc1ccc(O)cc1)c1c(O)cc(O)cc1O` [Phloretin]: under “168 h, 3 µM”, the “Z Score” value was determined as 0.9165 and the Z score is on record as 0.916.
`CO[C@@]1(NC(=O)CSCC#N)C(=O)N2C(C(=O)O)=C(CSc3nnnn3C)CS[C@@H]21` [Cefmetazole sodium]: under setting [6], the “Z Score” value is on record as 2.503. Under setting [7], the Z score stood at 2.503. The Activity entry under setting [8] is given as “no”.
As to `CC(=O)OCC1=C(C(=O)[O-])N2C(=O)[C@@H](NC(=O)CCC[C@@H](N)C(=O)[O-])[C@H]2SC1.[Zn+2]` [Cephalosporin C zinc salt], the “Z Score” value is given as −3.309. This compound also showed a Z score under setting [1] of −3.309. Further, the Activity entry under setting [12] was “yes”.
`Cl.OC1CCCCC1N1CCC(c2ccccc2)CC1` (racemic) [(±)-Vesamicol hydrochloride]: under setting [4], the Z score is −1.967. The Activity entry under setting [5] is “no”.
With `O=C(C1CCCCC1)N1CC(=O)N2CCc3ccccc3C2C1` (stereo not shown) [Praziquantel], under setting [10], the “Z Score” value is on record as −2.296. Also, the Z score under setting [1] is listed as −2.296. The Activity entry under setting [3] is on record as “no”.
For the compound `CCN(CC)CCNC(=O)c1ccc(N)cc1` [Procainamide hydrochloride], under setting [11], the “Z Score” value stood at 0.6535. In addition, the Z score under setting [1] came to 0.654. Besides, the Activity entry under setting [12] was “no”.
For `OC[C@H]1O[C@@H](n2cnc3c(NC4CCCC4)ncnc32)[C@H](O)[C@@H]1O` [N6-Cyclopentyladenosine], for the setting “168 h, 3 µM”, the “Z Score” value is recorded as −0.7839 and the Z score is −0.784. In addition, the Activity entry under setting [8] is “no”.
For `O=C(O)CCCCCCCC(=O)O` [Azelaic acid], the “Z Score” value under setting [11] came out at 0.1057. Under setting [1], this compound yielded a Z score of 0.106. Also, under setting [2], the Activity result is given as “no”.
As to `CC1CN(S(=O)(=O)c2cccc3cnccc23)CCN1.Cl.Cl` [L-701,324], the “Z Score” value worked out at 0.4513. Under setting [1], this compound returned a Z score of 0.451.
